Read-outs that look alike come from different tables or passages of the source.
Legend:
KMS12-BM cells = experiment: Antiproliferative activity on KMS12-BM (NIK WT) multiple myeloma cells (CellTiter-Glo); assay type: cell-based, human; details: KMS12-BM (NIK WT) cells, 96 hr, averaged values, read-out: KMS-12 Proliferation inhibition (IC50 (nM))
Description: (§1) Determination of antiproliferative activity on JJN-3 (NIK translocated) and KMS12-BM (NIK WT) multiple myeloma cells
(§2) All compounds tested were dissolved in DMSO and further dilutions were made in culture medium. Final DMSO concentration was 0.3% (v/v) in cell proliferation assays. Viability was assessed using CellTiter-Glo cell viability assay kit (Promega). The human JJN-3 and KMS12-BM cells (DSMZ) were cultured in RPMI 1640 medium supplemented with 2 mM L-glutamine, and 10% fetal calf serum (PAA). Cells were routinely kept as suspension cells at 37° C. in a humidified 5% CO2 atmosphere. Cells were passaged at a seeding density of 0.2×10^6/ml twice a week. Cells were seeded in black tissue culture treated 96-well plates (Perkin Elmer). Densities used for plating ranged from 15000 (JJN3) to 20000 (KMS12BM) cells per well in a total volume of 135 μl medium. Drugs and/or solvents were added (15 μl) to a final volume of 150 μl. Following 96 hr of treatment, plates were removed from the incubator and allowed to equilibrate to room temperature for approx 10 min. 75 μl CellTiter-Glo reagent was added to each well that was then covered (Perkin Elmer Topseal) and shaken on plate shaker for 10 min. Luminescence was measured on a HTS Topcount (Perkin Elmer). Within an experiment, the results for each treatment were the mean of 2 replicate wells. For initial screening purposes, compounds were tested using a 9 point dilution curve (serial 1:3 dilutions). For each experiment, controls (containing no drug) and a blank incubation (containing cells read at the time of compound addition) were run in parallel. The blank value was subtracted from all control and sample values. For each sample, the mean value for cell growth (in relative light units) was expressed as a percentage of the mean value for cell growth of the control.

[1] = molecular target: recombinant human NF-kappaB-inducing kinase (NIK/MAP3K14) (Homo sapiens (Human), UniProt Q99558); experiment: Inhibition of auto-phosphorylation of recombinant human NIK/MAP3K14 activity (AlphaScreen); assay type: biochemical; details: averaged values over all measurements on all batches
Chain of recombinant human NF-kappaB-inducing kinase (NIK/MAP3K14) (Q99558 whole entry): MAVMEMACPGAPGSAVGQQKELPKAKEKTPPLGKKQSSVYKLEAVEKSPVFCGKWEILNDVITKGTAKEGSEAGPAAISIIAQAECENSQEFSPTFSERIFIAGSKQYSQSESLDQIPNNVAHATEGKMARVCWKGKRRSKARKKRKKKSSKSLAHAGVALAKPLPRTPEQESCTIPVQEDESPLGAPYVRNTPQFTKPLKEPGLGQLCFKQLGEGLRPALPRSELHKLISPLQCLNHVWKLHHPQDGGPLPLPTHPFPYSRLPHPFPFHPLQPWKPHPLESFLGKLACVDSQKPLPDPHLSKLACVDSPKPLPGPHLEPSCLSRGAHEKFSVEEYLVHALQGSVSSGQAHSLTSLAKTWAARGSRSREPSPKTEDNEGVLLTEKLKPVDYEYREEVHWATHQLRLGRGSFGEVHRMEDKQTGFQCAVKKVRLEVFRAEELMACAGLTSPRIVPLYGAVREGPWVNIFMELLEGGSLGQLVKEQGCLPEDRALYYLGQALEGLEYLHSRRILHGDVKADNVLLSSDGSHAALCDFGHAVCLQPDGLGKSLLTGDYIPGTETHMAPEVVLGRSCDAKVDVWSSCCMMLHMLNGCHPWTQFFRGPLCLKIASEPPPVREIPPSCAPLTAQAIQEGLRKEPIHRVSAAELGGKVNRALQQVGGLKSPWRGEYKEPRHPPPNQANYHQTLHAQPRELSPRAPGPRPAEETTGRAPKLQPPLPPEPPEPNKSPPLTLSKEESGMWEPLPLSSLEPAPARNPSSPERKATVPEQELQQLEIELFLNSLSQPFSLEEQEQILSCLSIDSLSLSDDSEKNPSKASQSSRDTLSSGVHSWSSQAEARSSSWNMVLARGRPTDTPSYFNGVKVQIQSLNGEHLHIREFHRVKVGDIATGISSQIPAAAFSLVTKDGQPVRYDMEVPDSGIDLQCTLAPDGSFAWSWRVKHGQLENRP
Description: Inhibition of auto-phosphorylation of recombinant human NF-kappaB-inducing kinase (NIK/MAP3K14) activity (AlphaScreen®)
NIK/MAP3K14 auto-phosphorylation activity was measured using the AlphaScreen® (αscreen) format (Perkin Elmer). All compounds tested were dissolved in dimethyl sulfoxide (DMSO) and further dilutions were made in assay buffer. Final DMSO concentration was 1% (v/v) in assays. Assay buffer was 50 mM Tris pH 7.5 containing 1 mM EGTA (ethylene glycol tetraacetic acid), 1 mM DTT (dithiothreitol), 0.1 mM Na3VO4, 5 mM MgCl2, 0.01% Tween® 20. Assays were carried out in 384 well Alphaplates (Perkin Elmer). Incubations consisted of compound, 25 microM Adenosine-5′-triphosphate (ATP), and 0.2 nM NIK/MAP3K14. Incubations were initiated by addition of GST-tagged NIK/MAP3K14 enzyme, carried out for 1 h at 25° C. and terminated by addition of stop buffer containing anti-phospho-IKK Ser176/180 antibody. Protein A Acceptor and Glutathione-Donor beads were added before reading using an EnVision® Multilabel Plate Reader (Perkin Elmer). Signal obtained in the wells containing blank samples was subtracted from all other wells and IC50's were determined by fitting a sigmoidal curve to % inhibition of control versus Log10 compound concentration.

JJN-3 cells = experiment: Antiproliferative activity on JJN-3 (NIK translocated) multiple myeloma cells (CellTiter-Glo); assay type: cell-based, human; details: JJN-3 (NIK translocated) cells, 96 hr, averaged values, read-out: JJN-3 Proliferation inhibition (IC50 (nM))
Description: as §1, §2

[2] = test system: P-IKKα levels in L363 cells; experiment: Effect of compounds on P-IKKα levels in L363 (NIK translocated multiple myeloma) cells; assay type: cell-based, human; details: averaged values, read-out: Inhibition of pIKKα_L-363 (IC50 (nM))
Description: Effect of compounds on P-IKKα levels in L363 (NIK translocated multiple myeloma) cells
All compounds tested were dissolved in DMSO and further dilutions were made in culture medium. Final DMSO concentration was 1% (v/v) in cell assays. The human L363 cells (ATCC) were cultured in RPMI 1640 medium supplemented with GlutaMax and 10% fetal calf serum (PAA). Cells were routinely maintained at densities of 0.2×10^6 cells per ml-1×10^6 cells per ml at 37° C. in a humidified 5% CO2 atmosphere. Cells were passaged twice a week splitting back to obtain the low density. Cells were seeded in 96 well plates (Nunc 167008) at 2×10^6 per ml media in a volume of 75 μl per well plus 25 μl 1 μg/ml recombinant human B-cell activating factor (BAFF/BLyS/TNFSF13B). Seeded cells were incubated at 37° C. in a humidified 5% CO2 atmosphere for 24 hr. Drugs and/or solvents were added (20 μl) to a final volume of 120 μl. Following 2 hr treatment plates were removed from the incubator and cell lysis was achieved by the addition of 30 μl 5× lysis buffer followed by shaking on a plate shaker at 4° C. for 10 min. At the end of this incubation lysed cells were centrifuged at 800×g for 20 min at 4° C. and the lysate was assessed for P-IKKα levels by sandwich immuno-assay carried out in anti-rabbit antibody coated Mesoscale plates. Within an experiment, the results for each treatment were the mean of 2 replicate wells. For initial screening purposes, compounds were tested using an 8 point dilution curve (serial 1:3 dilutions). For each experiment, controls (containing MG132 and BAFF but no test drug) and a blank incubation (containing MG132 and BAFF and 10 μM ADS125117, a test concentration known to give full inhibition) were run in parallel. The blank incubation value was subtracted from all control and sample values. To determine the IC50 a sigmoidal curve was fitted to the plot of % inhibition of control P-IKKα levels versus Log10 compound concentration.

[3] = Homo sapiens, L-363, L363 cells

| SMILES | IC50 (KMS12-BM cells; Homo sapiens, KMS-12-BM, 96 h) | IC50 [1] | IC50 (JJN-3 cells; Homo sapiens, JJN-3, 96 h) | IC50 [2, 3] | IC50 (KMS12-BM cells) | IC50 (JJN-3 cells) | IC50 ([2]; L363 cells) |
| --- | --- | --- | --- | --- | --- | --- | --- |
| Cc1cc(Nc2nccc(-c3cc(C#N)c4c(c3)[C@@](C)(CO)CN4)n2)n(CC2CCCOC2)n1 (mixture of isomers) [Compound 94] | 4170 nM | 5.6 nM | 178 nM | 7 nM | – | – | – |
| Cc1cc(Nc2nccc(-c3cc(C#N)c4c(c3)[C@@](C)(CO)CN4)n2)n(CC2CCN(C)C(=O)C2)n1 (mixture of isomers) [Compound 171] | – | 6.2 nM | – | 1440 nM | – | – | – |
| Cc1cc(Nc2nccc(-c3cc(C#N)c4c(c3)[C@@](C)(CO)CN4)n2)n(CC2CCn3ccnc3C2)n1 (mixture of isomers) [Compound 202] | – | 7.2 nM | – | 1950 nM | – | – | – |
| CN1CCOCC1c1cc(Nc2nccc(-c3cc(C#N)c4c(c3)[C@@](C)(CO)CN4)n2)nn1C (mixture of isomers) [Compound 215] | – | 168 nM | – | 3490 nM | – | – | – |
| Cc1cc(Nc2nccc(-c3cc(C#N)c4c(c3)[C@@](C)(CO)CN4)n2)n(CC2CCOC2)n1 (single isomer, unassigned) [Compound 81] | – | 4.3 nM | 195 nM | 11 nM | 851 nM | – | – |
| Cc1cc(Nc2nccc(-c3cc(C#N)c4c(c3)[C@@](C)(CO)CN4)n2)n(CC2CCOC2)n1 (single isomer, unassigned) [Compound 82] | – | ~5 nM | – | – | 380 nM | 182 nM | 13 nM |
| Cc1cc(Nc2nccc(-c3cc(C#N)c4c(c3)[C@@](C)(CO)CN4)n2)n(CC2COCCO2)n1 (single isomer, unassigned) [Compound 84] | – | 11 nM | 437 nM | – | > 10000 nM | – | 11 nM |
| Cc1cc(Nc2nccc(-c3cc(C#N)c4c(c3)[C@@](C)(CO)CN4)n2)n(CC2COCCO2)n1 (single isomer, unassigned) [Compound 85] | – | 9.8 nM | – | – | ~4900 nM | 380 nM | 31 nM |
| Cc1cc(Nc2nccc(-c3cc(C#N)c4c(c3)[C@@](C)(CO)CN4)n2)n(CC2CCCN(C)C2)n1 (single isomer, unassigned) [Compound 140] | 6460 nM | 8.3 nM | – | – | – | 174 nM | 145 nM |
| Cc1cc(Nc2nccc(-c3cc(C#N)c4c(c3)[C@@](C)(CO)CN4)n2)n(CC2CCCN(C)C2)n1 (single isomer, unassigned) [Compound 141] | – | 42 nM | – | – | > 10000 nM | 79 nM | 813 nM |
| Cc1nn(C)cc1Nc1nccc(-c2cc(C#N)c3c(c2)C(C)(CO)CN3)n1 (stereo not drawn) [Compound 7] | ~1740 nM | – | 112 nM | 2 nM | – | – | – |
| CC(C)n1nc(Nc2nccc(-c3cc(C#N)c4c(c3)C(C)(CO)CN4)n2)cc1C(=O)NC1CCOCC1 (stereo not drawn) [Compound 35] | > 10000 nM | 7.9 nM | 209 nM | 4 nM | – | – | – |
| COCCn1nc(C)cc1Nc1nccc(-c2cc(C#N)c3c(c2)[C@@](C)(CO)CN3)n1 [Compound 42] | 5980 nM | 4.2 nM | 398 nM | 68 nM | – | – | – |
| COCCCn1nc(C)cc1Nc1nccc(-c2cc(C#N)c3c(c2)[C@@](C)(CO)CN3)n1 [Compound 49] | 2090 nM | – | 134 nM | 11 nM | – | – | – |
| Cc1cc(Nc2nccc(-c3cc(C#N)c4c(c3)[C@@](C)(CO)CN4)n2)nn1CC1CCOCC1 [Compound 60] | ~501 nM | 2 nM | 72 nM | 5 nM | – | – | – |
| Cc1cc(Nc2nccc(-c3cc(C#N)c4c(c3)[C@@](C)(CO)CN4)n2)nn1CC1CCCCO1 (stereo partly drawn) [Compound 70] | – | 3.8 nM | – | 6 nM | 1860 nM | 209 nM | – |
| Cc1cc(Nc2nccc(-c3cc(C#N)c4c(c3)[C@@](C)(CO)CN4)n2)nn1CC1CCCCO1 (stereo partly drawn) [Compound 71] | – | 2.8 nM | – | – | 813 nM | 102 nM | 4 nM |
| CN(C)C(=O)Cn1nc(Cl)cc1Nc1nccc(-c2cc(C#N)c3c(c2)[C@@](C)(CO)CN3)n1 [Compound 116] | – | 9.3 nM | – | 269 nM | – | – | – |
| C[C@]1(CO)CNc2c(C#N)cc(-c3ccnc(Nc4cn(CC(F)F)nc4C(=O)N4CCCC4)n3)cc21 [Compound 189] | – | 17 nM | – | 51 nM | – | – | – |
| CNC(=O)c1c(Nc2nccc(-c3cc(C#N)c4c(c3)[C@@](C)(CO)CN4)n2)cnn1C [Compound 190] | – | 11.7 nM | – | 110 nM | – | – | – |
| Cn1ncc(Nc2nccc(-c3cc(C#N)c4c(c3)[C@@](C)(CO)CN4)n2)c1C(=O)N1CCCC1 [Compound 191] | – | 107 nM | – | 4470 nM | – | – | – |
| Cn1ncc(Nc2nccc(-c3cc(C#N)c4c(c3)[C@@](C)(CO)CN4)n2)c1OC1COC1 [Compound 193] | – | 25.1 nM | – | 91 nM | – | – | – |
| Cc1cc(Nc2nccc(-c3cc(C#N)c4c(c3)[C@@](C)(CO)CN4)n2)n(CC(=O)N(C)C)n1 [Compound 206] | – | 2.9 nM | – | 31 nM | – | – | – |
| CC(C)Oc1nn(CCN2CCOCC2)cc1Nc1nccc(-c2cc(C#N)c3c(c2)[C@@](C)(CO)CN3)n1 [Compound 207] | – | 15.5 nM | – | 93 nM | – | – | – |
| CN1CCN(Cc2c(Nc3nccc(-c4cc(C#N)c5c(c4)[C@@](C)(CO)CN5)n3)cnn2C)CC1 [Compound 209] | – | 28.2 nM | – | 141 nM | – | – | – |
| CC(C)n1nc(C(=O)N(C)C2CC2)cc1Nc1nccc(-c2cc(C#N)c3c(c2)[C@@](C)(CO)CN3)n1 [Compound 211] | – | 14.8 nM | – | 204 nM | – | – | – |
| Cc1cc(Nc2nccc(-c3cc(C#N)c4c(c3)[C@@](C)(CO)CN4)n2)n(CC2CCN(CC(=O)O)CC2)n1 [Compound 214] | – | 18.6 nM | – | 2630 nM | – | – | – |
| CNC(=O)c1cc(Nc2nccc(-c3cc(C#N)c4c(c3)[C@@](C)(CO)CN4)n2)n(CC(C)C)n1 [Compound 219] | – | 9.5 nM | 214 nM | 100 nM | – | – | – |
| Cn1ccc(Nc2nccc(-c3cc(C#N)c4c(c3)[C@@](C)(CN)CN4)n2)n1 [Compound 222] | – | 12 nM | – | 15 nM | – | – | – |
| Cn1ccc(Nc2nccc(-c3cc(C#N)c4c(c3)[C@](C)(CN)CN4)n2)n1 [Compound 223] | – | 224 nM | – | – | – | – | 269 nM |
